Results as given in the supplement of paper PMC11451515.

Legend:
Assay in all cases: AUC of viability dose-response curve (% viability x log10 dose units); higher = less sensitive
Conditions in all cases: 48 h
P12-Ichikawa = tested on: P12-Ichikawa
Method in brief: (§1)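 Leukemia cells adapted to each medium (500 or 1000 cells/well, 1536-well plates) were exposed to library compounds in DMSO for 48 h at 37°C at 11 threefold doses, 47 μM to 0.79 nM. Luminescence by CellTiter-Glo One was normalised per plate to DMSO and cell-free wells, then fitted with a four-parameter log-logistic curve on log10 dose. Curves above full viability were scaled and quality-control failures removed before area under the curve was integrated by trapezoidal rule.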

SEM cells = tested on: SEM cells
Method in brief: as §1

NOMO1 = tested on: NOMO1
Method in brief: as §1

[1] = RPMI 5 mM glucose + 10% dialyzed FBS

SMILES	AUC of viability dose-response curve (P12-Ichikawa; HPLM + 10% dialyzed FBS)	AUC of viability dose-response curve (P12-Ichikawa; RPMI 5 mM glucose + 10% FBS)	AUC of viability dose-response curve (P12-Ichikawa; [1])	AUC of viability dose-response curve (SEM cells; HPLM + 10% dialyzed FBS)	AUC of viability dose-response curve (SEM cells; RPMI 5 mM glucose + 10% FBS)	AUC of viability dose-response curve (SEM cells; [1])	AUC of viability dose-response curve (NOMO1; HPLM + 10% dialyzed FBS)	AUC of viability dose-response curve (NOMO1; RPMI 5 mM glucose + 10% FBS)	AUC of viability dose-response curve (NOMO1; [1])
Nc1nc(NCCNc2ncc(-n3ccnc3)c(-c3ccc(Cl)cc3Cl)n2)ccc1[N+](=O)[O-]	464	447	466	452	446	450	460	412	442
CN1CCN(CCCN2c3ccccc3Sc3ccc(Cl)cc32)CC1.O=C(O)/C=C\C(=O)O.O=C(O)/C=C\C(=O)O	429	421	423	471	466	465	362	390	386
Nc1ccc([S+](=O)([O-])Nc2ncccn2)cc1	464	452	471	460	462	437	467	444	452
COc1cc(OC)c(C(=O)CCCN2CCCC2)c(OC)c1	464	456	417	446	451	443	448	440	441
COc1ccc(-c2oc3cc(OC)ccc3c2C(=O)c2ccc(C#N)cc2)cc1	354	345	374	455	460	451	326	311	321
N=C(N)Nc1ccc(C(=O)Oc2ccc3cc(C(=N)N)ccc3c2)cc1	437	443	404	419	392	441	446	406	396
COc1ccc(C2(C#N)CCC(C(=O)O)CC2)cc1OC1CCCC1 (stereo unspecified)	475	466	464	439	443	443	465	434	471
CC(C)c1c(C(=O)Nc2ccccc2)c(-c2ccccc2)c(-c2ccc(F)cc2)n1CC[C@@H](O)C[C@@H](O)CC(=O)[O-]	448	400	409	440	439	447	428	431	412
Cc1nc(N)ncc1-c1nc(N2CCOCC2)c2sc(C(C)(C)O)cc2n1	213	279	276	249	163	220	204	264	285
CN(C)[C@@H](CCOc1cccc2ccccc12)c1ccccc1	455	433	467	400	444	469	433	461	456
Oc1c(Cl)cc(Cl)c2cccnc12	465	447	449	435	439	433	446	438	462
N[C@@H](Cc1ccc(O)c(O)c1)C(=O)O	471	454	466	456	433	458	459	475	456
CCCCc1nc2cc(/C=C/C(=O)NO)ccc2n1CCN(CC)CC	345	337	348	344	345	303	370	326	349
COc1cc(Cl)cn2c(-c3cccc(NC4CNC4)n3)cnc12	459	458	464	453	442	440	472	468	454
C=CC(=O)Nc1ccc2ncnc(Nc3ccc(OCc4cccc(F)c4)c(Cl)c3)c2c1	404	404	404	370	400	383	355	368	355
CCc1cc(-c2n[nH]c(C)c2-c2ccc3c(c2)OCCO3)c(O)cc1O	455	435	444	422	414	418	450	447	448
NC\1=N\C(=O)N(\C=C1F)[C@H]2C[C@H](O)[C@@H](CO)O2	285	279	264	270	359	201	280	360	239
CO[C@@H]1[C@@H](O)[C@H](O)[C@@H](n2c3c(Cl)cccc3c3c4c(c5c6cccc(Cl)c6[nH]c5c32)C(=O)NC4=O)O[C@H]1CO	266	259	251	292	254	283	340	323	325
NNc1nncc2ccccc12	470	452	463	436	454	438	472	461	466
